From ChEMBL document CHEMBL1135108, “Bicyclic piperazinylbenzenesulphonamides are potent and selective 5-HT6 receptor antagonists” (Bioorg Med Chem Lett, 2002)

Tests used:
[1] = target: T1, 5-hydroxytryptamine receptor 1A (Homo sapiens, UniProt P08908); assay: The compound was tested for the binding affinity towards human cloned 5-hydroxytryptamine 1A receptor in HEK293 cells, using [3H]8-OH-DPAT as radioligand; format: cell-based
T1 sequence (P08908 whole entry): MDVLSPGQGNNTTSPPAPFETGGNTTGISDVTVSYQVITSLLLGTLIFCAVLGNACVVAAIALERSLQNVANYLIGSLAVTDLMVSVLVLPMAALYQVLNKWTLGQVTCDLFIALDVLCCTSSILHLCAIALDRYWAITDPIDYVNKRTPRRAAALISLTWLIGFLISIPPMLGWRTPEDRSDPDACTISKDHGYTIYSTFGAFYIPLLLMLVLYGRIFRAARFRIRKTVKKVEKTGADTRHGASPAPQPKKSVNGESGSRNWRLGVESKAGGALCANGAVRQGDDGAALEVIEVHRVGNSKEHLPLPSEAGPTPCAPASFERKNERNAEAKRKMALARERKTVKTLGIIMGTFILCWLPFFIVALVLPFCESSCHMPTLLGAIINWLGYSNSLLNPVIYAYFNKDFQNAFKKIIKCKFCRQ

[2] = target: 5-hydroxytryptamine receptor 1B (Homo sapiens, UniProt P28222); assay: The compound was tested for the binding affinity towards human cloned 5-hydroxytryptamine 1B receptor in CHO cells, using [3H]5-HT as radioligand; format: cell-based
[3] = target: 5-hydroxytryptamine receptor 1D (Homo sapiens, UniProt P28221); assay: The compound was tested for the binding affinity towards human cloned 5-hydroxytryptamine 1D receptor in CHO cells, using [3H]5-HT as radioligand; format: cell-based
[4] = target: 5-hydroxytryptamine receptor 1E (Homo sapiens, UniProt P28566); assay: The compound was tested for the binding affinity towards human cloned 5-hydroxytryptamine 1E receptor in CHO cells, using [3H]5-HT as radioligand; format: cell-based
[5] = target: 5-hydroxytryptamine receptor 2A (Homo sapiens, UniProt P28223); assay: The compound was tested for the binding affinity towards human cloned 5-hydroxytryptamine 2A receptor in HEK293 cells, using [3H]ketanserin as radioligand; format: cell-based
[6] = target: T2, 5-hydroxytryptamine receptor 1F (Homo sapiens, UniProt P30939); assay: The compound was tested for the binding affinity towards human cloned 5-hydroxytryptamine 1F receptor in CHO cells, using [3H]5-HT as radioligand; format: cell-based
T2 sequence (P30939 whole entry): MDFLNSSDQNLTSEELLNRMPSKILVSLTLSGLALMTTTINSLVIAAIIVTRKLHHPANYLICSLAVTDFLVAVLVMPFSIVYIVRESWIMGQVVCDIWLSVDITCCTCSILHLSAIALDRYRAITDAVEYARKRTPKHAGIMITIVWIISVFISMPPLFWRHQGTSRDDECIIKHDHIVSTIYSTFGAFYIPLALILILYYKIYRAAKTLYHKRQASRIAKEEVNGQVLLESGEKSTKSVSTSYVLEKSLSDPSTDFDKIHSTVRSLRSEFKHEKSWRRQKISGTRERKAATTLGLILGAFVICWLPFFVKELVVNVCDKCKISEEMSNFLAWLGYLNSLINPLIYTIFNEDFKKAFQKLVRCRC

[7] = target: 5-hydroxytryptamine receptor 2B (Homo sapiens, UniProt P41595); assay: The compound was tested for the binding affinity towards human cloned 5-hydroxytryptamine 2B receptor in HEK293 cells, using [3H]5-HT as radioligand; format: cell-based
[8] = target: T3, 5-hydroxytryptamine receptor 2C (Homo sapiens, UniProt P28335); assay: The compound was tested for the binding affinity towards human cloned 5-hydroxytryptamine 2C receptor in HEK293 cells, using […] as radioligand; format: cell-based
T3 sequence (P28335 whole entry): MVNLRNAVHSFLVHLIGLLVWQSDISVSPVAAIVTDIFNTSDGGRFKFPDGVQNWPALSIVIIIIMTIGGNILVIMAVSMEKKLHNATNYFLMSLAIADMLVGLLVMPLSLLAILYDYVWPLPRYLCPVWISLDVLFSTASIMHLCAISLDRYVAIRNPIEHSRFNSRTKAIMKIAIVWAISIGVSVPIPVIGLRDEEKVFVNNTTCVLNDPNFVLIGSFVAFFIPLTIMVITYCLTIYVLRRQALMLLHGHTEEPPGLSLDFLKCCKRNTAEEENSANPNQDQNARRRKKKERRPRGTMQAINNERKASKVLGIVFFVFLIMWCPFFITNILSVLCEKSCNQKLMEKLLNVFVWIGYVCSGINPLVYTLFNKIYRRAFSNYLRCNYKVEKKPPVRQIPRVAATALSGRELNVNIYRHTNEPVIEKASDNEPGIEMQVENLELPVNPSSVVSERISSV

[9] = target: 5-hydroxytryptamine receptor 4 (Homo sapiens, UniProt Q13639); assay: The compound was tested for the binding affinity towards human cloned 5-hydroxytryptamine 4 receptor in HeLa cells, using [3H]LSD as radioligand; format: cell-based
[10] = target: 5-hydroxytryptamine receptor 7 (Homo sapiens, UniProt P34969); assay: The compound was tested for the binding affinity towards human cloned 5-hydroxytryptamine 7 receptor in HEK293 cells, using [3H]5-CT as radioligand; format: cell-based
[11] = target: T4, 5-hydroxytryptamine receptor 6 (Homo sapiens, UniProt P50406); assay: The compound was tested for the binding affinity towards human cloned 5-hydroxytryptamine 6 receptor in HeLa cells, using […] as radioligand; n=3; format: cell-based
[12] = target: T5, Alpha-1B adrenergic receptor (Homo sapiens, UniProt P35368); assay: The compound was tested for the binding affinity towards Alpha-1B adrenergic receptor
T5 sequence (P35368 whole entry): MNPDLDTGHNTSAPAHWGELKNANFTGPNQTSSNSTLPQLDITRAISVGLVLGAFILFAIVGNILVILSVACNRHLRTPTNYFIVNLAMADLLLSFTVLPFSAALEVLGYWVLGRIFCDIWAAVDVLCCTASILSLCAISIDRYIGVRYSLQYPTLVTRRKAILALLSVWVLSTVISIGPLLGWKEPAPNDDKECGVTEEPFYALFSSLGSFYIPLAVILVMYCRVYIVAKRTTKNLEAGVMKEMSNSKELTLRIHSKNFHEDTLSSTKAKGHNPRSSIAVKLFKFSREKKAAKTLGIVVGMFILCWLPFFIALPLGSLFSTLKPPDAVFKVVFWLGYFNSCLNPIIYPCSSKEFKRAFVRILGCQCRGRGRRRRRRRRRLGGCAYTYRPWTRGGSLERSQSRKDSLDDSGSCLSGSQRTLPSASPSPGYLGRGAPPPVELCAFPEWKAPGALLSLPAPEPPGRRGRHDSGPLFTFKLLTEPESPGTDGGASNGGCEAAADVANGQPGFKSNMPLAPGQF

[13] = target: D(2) dopamine receptor (Homo sapiens, UniProt P14416); assay: The compound was tested for the binding affinity towards human cloned Dopamine receptor D2 in CHO cells, using [125I]iodosulpride as radioligand; format: cell-based
[14] = target: D(3) dopamine receptor (Homo sapiens, UniProt P35462); assay: The compound was tested for the binding affinity towards human cloned Dopamine receptor D3 in CHO cells, using [125I]iodosulpride as radioligand; format: cell-based
[15] = target: T4, 5-hydroxytryptamine receptor 6; assay: The compound was tested for the binding affinity towards human cloned 5-hydroxytryptamine 6 receptor in HeLa cells, using […] as radioligand; n=9; format: cell-based

5-hydroxytryptamine receptor 2A, sequence (P28223 whole entry): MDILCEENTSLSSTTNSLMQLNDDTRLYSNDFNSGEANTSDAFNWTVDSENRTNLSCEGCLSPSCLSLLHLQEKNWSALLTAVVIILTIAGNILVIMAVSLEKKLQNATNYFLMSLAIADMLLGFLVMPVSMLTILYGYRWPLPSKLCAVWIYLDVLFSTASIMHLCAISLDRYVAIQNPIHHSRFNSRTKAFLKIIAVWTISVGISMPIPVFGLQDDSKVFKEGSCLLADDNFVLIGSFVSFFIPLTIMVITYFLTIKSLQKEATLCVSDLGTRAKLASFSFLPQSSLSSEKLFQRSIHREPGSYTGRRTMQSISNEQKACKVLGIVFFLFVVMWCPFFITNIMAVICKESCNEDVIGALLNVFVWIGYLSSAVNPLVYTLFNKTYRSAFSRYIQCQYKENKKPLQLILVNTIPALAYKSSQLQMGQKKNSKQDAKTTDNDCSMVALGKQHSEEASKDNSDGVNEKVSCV
5-hydroxytryptamine receptor 1B, sequence (P28222 whole entry): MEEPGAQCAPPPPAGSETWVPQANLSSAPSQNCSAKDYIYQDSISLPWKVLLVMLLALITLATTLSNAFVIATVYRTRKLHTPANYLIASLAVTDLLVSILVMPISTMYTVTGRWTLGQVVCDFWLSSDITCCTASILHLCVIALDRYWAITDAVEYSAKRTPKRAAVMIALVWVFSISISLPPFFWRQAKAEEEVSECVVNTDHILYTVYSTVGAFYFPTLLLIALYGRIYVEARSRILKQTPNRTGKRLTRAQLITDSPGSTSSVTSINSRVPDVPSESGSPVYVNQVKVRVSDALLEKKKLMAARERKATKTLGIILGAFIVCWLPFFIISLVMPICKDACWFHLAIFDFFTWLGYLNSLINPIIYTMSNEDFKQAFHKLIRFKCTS
T4 sequence (P50406 whole entry): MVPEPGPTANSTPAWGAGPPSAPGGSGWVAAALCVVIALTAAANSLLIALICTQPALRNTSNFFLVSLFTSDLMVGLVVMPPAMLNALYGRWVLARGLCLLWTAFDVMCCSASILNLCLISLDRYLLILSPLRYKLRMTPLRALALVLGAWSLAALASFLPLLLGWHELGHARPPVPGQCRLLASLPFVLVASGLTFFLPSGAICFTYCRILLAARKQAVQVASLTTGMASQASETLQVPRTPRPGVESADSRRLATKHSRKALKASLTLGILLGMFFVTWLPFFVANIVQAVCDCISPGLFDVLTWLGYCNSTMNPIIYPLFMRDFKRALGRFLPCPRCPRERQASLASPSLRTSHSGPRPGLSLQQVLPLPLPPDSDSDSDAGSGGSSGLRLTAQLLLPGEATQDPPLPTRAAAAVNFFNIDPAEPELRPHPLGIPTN
5-hydroxytryptamine receptor 2B, sequence (P41595 whole entry): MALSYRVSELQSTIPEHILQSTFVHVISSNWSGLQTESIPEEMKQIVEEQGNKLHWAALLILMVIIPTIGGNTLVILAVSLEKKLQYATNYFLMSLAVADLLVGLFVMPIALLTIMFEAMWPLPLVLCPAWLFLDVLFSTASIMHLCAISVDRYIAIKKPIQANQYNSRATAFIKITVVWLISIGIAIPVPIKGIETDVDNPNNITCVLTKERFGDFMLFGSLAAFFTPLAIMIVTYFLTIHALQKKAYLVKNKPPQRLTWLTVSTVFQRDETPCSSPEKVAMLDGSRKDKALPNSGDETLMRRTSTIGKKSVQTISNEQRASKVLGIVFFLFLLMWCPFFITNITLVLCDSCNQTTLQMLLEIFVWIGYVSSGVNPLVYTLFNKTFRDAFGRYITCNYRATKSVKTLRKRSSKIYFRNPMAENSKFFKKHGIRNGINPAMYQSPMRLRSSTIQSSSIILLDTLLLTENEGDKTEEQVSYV
5-hydroxytryptamine receptor 4, sequence (Q13639 whole entry): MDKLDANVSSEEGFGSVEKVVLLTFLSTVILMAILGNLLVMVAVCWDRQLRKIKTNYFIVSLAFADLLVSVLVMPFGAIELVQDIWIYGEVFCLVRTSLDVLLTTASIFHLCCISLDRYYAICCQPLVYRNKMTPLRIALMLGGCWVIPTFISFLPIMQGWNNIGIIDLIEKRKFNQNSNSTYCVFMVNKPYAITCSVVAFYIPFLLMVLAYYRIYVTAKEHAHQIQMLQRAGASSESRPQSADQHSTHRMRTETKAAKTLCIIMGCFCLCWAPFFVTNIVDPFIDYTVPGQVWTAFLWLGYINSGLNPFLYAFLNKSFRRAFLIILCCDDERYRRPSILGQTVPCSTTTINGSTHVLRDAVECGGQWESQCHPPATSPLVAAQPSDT
D(3) dopamine receptor, sequence (P35462 whole entry): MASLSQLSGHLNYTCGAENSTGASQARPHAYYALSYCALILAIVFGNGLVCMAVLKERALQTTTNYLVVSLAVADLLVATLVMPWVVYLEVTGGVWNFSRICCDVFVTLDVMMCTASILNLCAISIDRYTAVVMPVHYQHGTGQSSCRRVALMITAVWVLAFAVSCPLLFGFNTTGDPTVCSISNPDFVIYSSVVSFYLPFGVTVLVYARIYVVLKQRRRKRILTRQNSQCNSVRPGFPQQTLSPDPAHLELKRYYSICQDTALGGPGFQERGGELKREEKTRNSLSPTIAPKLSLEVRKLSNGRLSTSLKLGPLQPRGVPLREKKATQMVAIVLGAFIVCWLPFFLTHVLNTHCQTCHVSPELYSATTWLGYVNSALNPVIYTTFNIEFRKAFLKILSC
5-hydroxytryptamine receptor 1E, sequence (P28566 whole entry): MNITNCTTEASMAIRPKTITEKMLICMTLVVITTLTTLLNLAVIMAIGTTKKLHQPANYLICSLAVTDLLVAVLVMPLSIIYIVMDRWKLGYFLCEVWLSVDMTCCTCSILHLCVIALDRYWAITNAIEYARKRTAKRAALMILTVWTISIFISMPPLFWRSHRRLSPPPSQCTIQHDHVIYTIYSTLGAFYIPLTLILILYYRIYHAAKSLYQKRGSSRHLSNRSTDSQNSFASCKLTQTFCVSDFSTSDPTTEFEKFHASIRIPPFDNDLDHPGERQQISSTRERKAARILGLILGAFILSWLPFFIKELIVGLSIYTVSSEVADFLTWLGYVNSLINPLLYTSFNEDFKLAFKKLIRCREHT
5-hydroxytryptamine receptor 7, sequence (P34969 whole entry): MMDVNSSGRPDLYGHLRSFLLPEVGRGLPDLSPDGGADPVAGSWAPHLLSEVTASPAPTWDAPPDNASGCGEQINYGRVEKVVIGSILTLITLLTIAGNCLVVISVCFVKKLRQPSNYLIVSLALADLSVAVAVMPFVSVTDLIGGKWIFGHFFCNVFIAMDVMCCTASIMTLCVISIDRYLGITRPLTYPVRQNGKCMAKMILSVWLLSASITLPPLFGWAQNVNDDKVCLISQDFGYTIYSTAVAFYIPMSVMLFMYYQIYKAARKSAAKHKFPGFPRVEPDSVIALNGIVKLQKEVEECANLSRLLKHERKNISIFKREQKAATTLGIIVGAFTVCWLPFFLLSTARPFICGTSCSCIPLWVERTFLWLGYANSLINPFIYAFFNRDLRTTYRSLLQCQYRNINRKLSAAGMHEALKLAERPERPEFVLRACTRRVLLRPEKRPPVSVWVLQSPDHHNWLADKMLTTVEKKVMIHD
D(2) dopamine receptor, sequence (P14416 whole entry): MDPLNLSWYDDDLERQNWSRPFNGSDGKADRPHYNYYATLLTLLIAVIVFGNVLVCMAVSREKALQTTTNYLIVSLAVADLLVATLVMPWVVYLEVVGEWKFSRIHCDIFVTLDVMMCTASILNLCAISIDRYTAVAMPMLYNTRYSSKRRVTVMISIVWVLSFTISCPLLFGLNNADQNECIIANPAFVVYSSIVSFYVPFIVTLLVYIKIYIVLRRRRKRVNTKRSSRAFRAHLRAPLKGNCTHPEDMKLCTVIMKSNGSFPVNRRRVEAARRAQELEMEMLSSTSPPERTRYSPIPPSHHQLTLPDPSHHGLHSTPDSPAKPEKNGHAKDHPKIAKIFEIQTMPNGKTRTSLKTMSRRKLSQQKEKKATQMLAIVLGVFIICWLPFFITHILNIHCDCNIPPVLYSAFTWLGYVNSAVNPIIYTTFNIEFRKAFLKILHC
5-hydroxytryptamine receptor 1D, sequence (P28221 whole entry): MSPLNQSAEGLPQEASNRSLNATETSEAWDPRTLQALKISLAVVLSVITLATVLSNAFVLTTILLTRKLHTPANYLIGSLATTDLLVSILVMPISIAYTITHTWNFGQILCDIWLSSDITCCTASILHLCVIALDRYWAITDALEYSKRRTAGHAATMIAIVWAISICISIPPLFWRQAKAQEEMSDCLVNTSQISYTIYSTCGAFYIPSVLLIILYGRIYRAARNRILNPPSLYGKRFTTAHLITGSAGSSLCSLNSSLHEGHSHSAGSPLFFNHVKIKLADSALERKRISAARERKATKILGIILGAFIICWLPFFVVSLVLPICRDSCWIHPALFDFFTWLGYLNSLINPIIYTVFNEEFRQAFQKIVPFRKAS

| Ki [1] [nM] | Ki [2] [nM] | Ki [3] [nM] | Ki [4] [nM] | Ki [5] [nM] | Ki [6] [nM] | Ki [7] [nM] | Ki [8] [nM] | Ki [9] [nM] | Ki [10] [nM] | Ki [11] [nM] | Ki [12] [nM] | Ki [13] [nM] | Ki [14] [nM] | Ki [15] [nM] | Compound |
| --- | --- | --- | --- | --- | --- | --- | --- | --- | --- | --- | --- | --- | --- | --- | --- |
| 200 | 631 | 126 | 1000 | 1260 | 200 | 1260 | 631 | 1580 | 631 | 0.794 | 1000 | 2000 | 631 | – | COc1ccc(NS(=O)(=O)c2sc3ccc(Cl)cc3c2C)cc1N1CCN2CCC[C@@H]2C1 |
| 631 | 3980 | 316 | > 1000 | 631 | > 1000 | 2000 | > 3160 | > 7940 | > 7940 | 5.01 | 2000 | 398 | 1000 | – | COc1ccc(NS(=O)(=O)c2sc3ccc(Cl)cc3c2C)cc1N1CCN2CCCCC2C1 (configuration not stated) |
| 126 | 631 | 100 | 1580 | 251 | 316 | 1260 | 398 | 5010 | 1000 | – | 1580 | 1580 | 316 | 0.794 | COc1ccc(NS(=O)(=O)c2sc3ccc(Cl)cc3c2C)cc1N1CCN2CCC[C@H]2C1 |
